Measured values published in ChEMBL document CHEMBL4152349, “A Fragment-Derived Clinical Candidate for Antagonism of X-Linked and Cellular Inhibitor of Apoptosis Proteins: 1-(6-[(4-Fluorophenyl)methyl]-5-(hydroxymethyl)-3,3-dimethyl-1 H,2 H,3 H-pyrrolo[3,2- b]pyridin-1-yl)-2-[(2 R,5 …” (J Med Chem, 2018).

Legend:
[1] = Drug level in CD-1 mouse hepatocytes treated with 1-(6-(4-fluorobenzyl)-3,3-dimethyl-2,3-dihydro-1H-pyrrolo[3,2-b]pyridin-1-yl)-2-((2R,5R)-5-methyl-2-(((R)-3-methylmorpholino)methyl)piperazin-1-yl)ethanone at 10 uM up to 90 mins by LC-MS analysis; assay type: ADME, cell-based, Hepatocyte
[2] = Drug level in cynomolgus monkey hepatocytes treated with 1-(6-(4-fluorobenzyl)-3,3-dimethyl-2,3-dihydro-1H-pyrrolo[3,2-b]pyridin-1-yl)-2-((2R,5R)-5-methyl-2-(((R)-3-methylmorpholino)methyl)piperazin-1-yl)ethanone at 10 uM up to 90 mins by LC-MS analysis; assay type: ADME, cell-based, Macaca fascicularis, Hepatocyte
[3] = Drug level in human hepatocytes treated with 1-(6-(4-fluorobenzyl)-3,3-dimethyl-2,3-dihydro-1H-pyrrolo[3,2-b]pyridin-1-yl)-2-((2R,5R)-5-methyl-2-(((R)-3-methylmorpholino)methyl)piperazin-1-yl)ethanone at 10 uM up to 90 mins by LC-MS analysis; assay type: ADME, cell-based, Hepatocyte
hERG (KCNH2) = hERG (KCNH2) (Homo sapiens, UniProt Q12809); experiment: in vitro; details: CHO-K1 cells expressing human ERG
CYP3A4 = CYP3A4 (Homo sapiens, UniProt P08684); experiment: in vitro; details: human CYP3A4 supersomes
MDA-MB-231 = experiment: cells; details: Homo sapiens, MDA-MB-231, 72 h
[4] = Chromatographic hydrophobicity index, log D of the compound at pH 7.4 by HPLC method; assay type: physicochemical; details: buffer
in vivo = details: cynomolgus monkey, po, 5 mg/kg
[5] = Oral bioavailability in Balb/c mouse at 10 mg/kg by UHPLC and ESI mass spectrometry; assay type: ADME, organism-based; details: in vivo

Chain of hERG (KCNH2) (Q12809 whole entry): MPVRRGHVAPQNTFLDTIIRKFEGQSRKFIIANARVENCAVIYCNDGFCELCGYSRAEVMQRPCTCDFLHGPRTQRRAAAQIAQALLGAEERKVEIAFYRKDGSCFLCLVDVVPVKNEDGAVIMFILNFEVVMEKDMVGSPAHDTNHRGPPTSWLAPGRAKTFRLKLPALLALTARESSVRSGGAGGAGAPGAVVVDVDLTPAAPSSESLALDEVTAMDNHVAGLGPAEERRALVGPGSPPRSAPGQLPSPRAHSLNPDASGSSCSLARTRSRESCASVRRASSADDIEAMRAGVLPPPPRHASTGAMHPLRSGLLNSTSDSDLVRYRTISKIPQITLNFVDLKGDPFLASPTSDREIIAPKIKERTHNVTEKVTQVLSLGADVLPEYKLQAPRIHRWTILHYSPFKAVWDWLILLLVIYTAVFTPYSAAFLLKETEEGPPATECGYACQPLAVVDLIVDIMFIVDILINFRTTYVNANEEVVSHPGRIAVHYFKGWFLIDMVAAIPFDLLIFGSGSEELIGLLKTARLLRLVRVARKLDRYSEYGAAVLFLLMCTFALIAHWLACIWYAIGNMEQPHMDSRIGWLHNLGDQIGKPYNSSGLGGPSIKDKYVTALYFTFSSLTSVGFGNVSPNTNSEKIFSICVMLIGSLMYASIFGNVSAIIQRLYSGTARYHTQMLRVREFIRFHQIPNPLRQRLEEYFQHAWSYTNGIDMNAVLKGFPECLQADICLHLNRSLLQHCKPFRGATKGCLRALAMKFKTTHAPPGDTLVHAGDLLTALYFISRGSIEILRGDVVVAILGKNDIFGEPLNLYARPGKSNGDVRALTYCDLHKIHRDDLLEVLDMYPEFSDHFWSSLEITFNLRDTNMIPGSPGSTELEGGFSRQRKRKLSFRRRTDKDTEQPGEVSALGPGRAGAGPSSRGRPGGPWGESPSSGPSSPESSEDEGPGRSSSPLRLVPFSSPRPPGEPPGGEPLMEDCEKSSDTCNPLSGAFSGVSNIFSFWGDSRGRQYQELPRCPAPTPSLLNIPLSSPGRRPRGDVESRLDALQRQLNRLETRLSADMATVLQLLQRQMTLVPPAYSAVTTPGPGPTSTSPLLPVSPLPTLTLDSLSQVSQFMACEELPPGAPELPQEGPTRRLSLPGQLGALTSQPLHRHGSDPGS
Chain of CYP3A4 (P08684 whole entry): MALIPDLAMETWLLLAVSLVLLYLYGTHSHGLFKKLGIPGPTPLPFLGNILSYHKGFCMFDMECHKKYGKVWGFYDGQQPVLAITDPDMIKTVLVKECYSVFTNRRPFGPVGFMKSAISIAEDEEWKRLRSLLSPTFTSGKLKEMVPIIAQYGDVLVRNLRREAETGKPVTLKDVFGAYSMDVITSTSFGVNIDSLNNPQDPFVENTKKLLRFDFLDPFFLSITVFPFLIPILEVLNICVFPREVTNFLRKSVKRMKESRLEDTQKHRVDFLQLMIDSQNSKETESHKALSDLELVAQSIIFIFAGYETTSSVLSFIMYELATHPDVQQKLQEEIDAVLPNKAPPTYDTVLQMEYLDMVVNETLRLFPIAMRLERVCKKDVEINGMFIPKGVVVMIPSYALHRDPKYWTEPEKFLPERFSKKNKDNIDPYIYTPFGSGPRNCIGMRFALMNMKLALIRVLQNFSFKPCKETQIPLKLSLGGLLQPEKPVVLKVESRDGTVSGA

SMILES | inhibition at 10 min, 30 µM (hERG (KCNH2)) | half-life at 40 min, 1 µM (CYP3A4) | IC50 (MDA-MB-231) | chromatographic logD [4] | further results
C[C@@H]1COCCN1C[C@@H](CN)NCC(=O)N1CC(C)(C)c2ncc(Cc3ccc(F)cc3)cc21 | – | – | – | – | Drug uptake [1]: Active; Drug uptake [2]: Active; Drug uptake [3]: Active
C[C@@H]1CN(CC(=O)N2CC(C)(C)c3nnc(Cc4ccc(F)cc4)cc32)[C@@H](CN2Cc3ccccc3C2=O)CN1 | 12% | 38 min | 16 nM | – | –
CN[C@@H](C)C(=O)N[C@H](C(=O)N1CCC[C@H]1c1nc(C(=O)c2ccc(F)cc2)cs1)C1CCCCC1 [LCL-161] | – | – | 7.8 nM | – | –
C[C@@H]1CN(CC(=O)N2CC(C)(C)c3nnc(Cc4ccc(F)cc4F)cc32)[C@@H](CN2Cc3cc(F)ccc3C2=O)CN1 | 25% | 37 min | 1.9 nM | 2.6 | –
C[C@@H]1CN(CC(=O)N2CC(C)(C)c3[nH]c(=O)c(Cc4ccc(F)cc4)cc32)[C@@H](CN2[C@H](C)COC[C@H]2C)CN1 | – | – | – | 2.7 | –
C[C@@H]1CN(CC(=O)N2CC(C)(C)c3ncc(Cc4ccc(F)cc4)cc32)[C@@H](CN)CN1 | – | – | – | – | Drug uptake [1]: Active; Drug uptake [2]: Active; Drug uptake [3]: Active
C[C@@H]1CN(CC(=O)N2CC(C)(C)c3ncc([C@H](O)c4ccc(F)cc4)cc32)[C@@H](CN2[C@H](C)COC[C@H]2C)CN1 | – | – | – | – | bioavailability (in vivo): 13%; bioavailability [5]: 31%
C[C@@H]1CN(CC(=O)N2CC(C)(C)c3nnc(Cc4ccc(F)cc4F)cc32)[C@@H](CN2Cc3ccc(C#N)cc3C2=O)CN1 | 18% | 34 min | 14 nM | 2.9 | –
C[C@@H]1CN(CC(=O)N2CC(C)(C)c3ncc(Cc4ccc(F)cc4)cc32)[C@@H](CNCCO)CN1 | – | – | – | – | Drug uptake [1]: Active; Drug uptake [2]: Active; Drug uptake [3]: Active
C[C@@H]1CN(CC(=O)N2CC(C)(C)c3nnc(Cc4ccc(F)cc4F)cc32)[C@@H](CN2Cc3ccc(F)cc3C2=O)CN1 | 18% | 41 min | 2.9 nM | 3.1 | –
C[C@@H]1CN(CC(=O)N2CC(C)(C)c3nc(CO)c(Cc4ccc(F)cc4)cc32)[C@@H](CN2[C@H](C)COC[C@H]2C)CN1 | – | – | – | 3.5 | –
